The text below walks through data of US4598095A (priority 1982, dated 1986).

≈ marks a conversion by molar mass, not a printed value. Counter-ions that a name gives are not always drawn.

Data set [1] concerns rice blast fungus (Pyricularia oryzae). Nature of the data set: whole plant or invertebrate. The format is in vivo. The conditions noted are these: 168 h, read-out: Protective Value.
Another data set in a line: in vitro. The conditions noted are these: chicken, chorioallantoic membrane.
Data set [2] relates to influenza virus, Adachi strain of A2-type. Description: microbe, parasite or virus in culture. In kind it is cell-based. The following applies: for virus proliferation-inhibiting index: 50% toxicity concentration / 50% virus proliferation-inhibiting concentration, 2880 min; for IC50: 48 h, read-out: 50% Virus Proliferation-Inhibiting Concentration.
The test system is the same in data set [3]. Description: microbe, parasite or virus in culture. In kind it is cell-based. The following applies: for virucidal index: 50% toxicity concentration / 50% virucidal concentration; for EC50: 2 h, read-out: 50% Virucidal Concentration.

For `CN=C(NN=Cc1cccc(Cl)c1)SC` [Compound 5, 3'-Chlorobenzaldehyde-S-methyl-4-N-methylisothiosemicarbazone Hydrochloride], the pest or weed control at 400 ppm in data set [1] was 93%.

For the molecule `CCCCSC(=N)NN=C(C)c1ccc(Cl)c(Cl)c1Cl` [Compound 32], in data set [1], the pest or weed control at 400 ppm was determined as 96%.

Consider `CCCCCCOc1ccc(C=CC(C)=NNC(=N)SC)cc1` [Compound 45], for which the pest or weed control at 400 ppm in data set [1] worked out at 96%.

In the case of `CSC(=N)NN=Cc1c(Cl)cccc1Cl` [Compound 12], the pest or weed control at 400 ppm in data set [1] came to 100%.

Turning to `CCCCSC(=N)NN=C(C)c1ccc(OC)cc1` [Compound 36], in data set [1], the pest or weed control at 400 ppm worked out at 95%.

In the data set “in vitro”, `NC12CC3CC(CC(C3)C1)C2` [Am, Adamantaneamine Hydrochloride, reference compound] showed a CC50 at 48 h of 1000 µg/mL. In data set [2], the virus proliferation-inhibiting index amounted to 30.4 and the IC50 worked out at 32.9 µg/mL. Moreover, in data set [3], the virucidal index is 1.5 and the EC50 was found to be 649 µg/mL.

Regarding `CCCC(=NNC(=NC)SC)c1ccc(Cl)cc1` [Compound 28], the CC50 at 48 h in “in vitro” is 794 µg/mL (≈ 2800 µM). The pest or weed control at 400 ppm in data set [1] worked out at 94%. For the same molecule, in data set [2], the virus proliferation-inhibiting index was 12.6 and the IC50 amounted to 63 µg/mL (≈ 222 µM).

In the case of `CC(=NNC(=N)SCc1ccccc1)c1ccccc1` [Compound 22], the pest or weed control at 400 ppm in data set [1] was 90%.

For the molecule `CCCCSC(=N)NN=Cc1ccc(Cl)cc1Cl` [Compound 9, 2',4'-Dichlorobenzaldehyde-S-butylisothiosemicarbazone Hydrochloride], the CC50 at 48 h in “in vitro” was 632 µg/mL. The pest or weed control at 400 ppm in data set [1] is 100%. Also, in data set [2], the virus proliferation-inhibiting index amounted to 5.5 and the IC50 stood at 115 µg/mL. Besides, in data set [3], the virucidal index is 19.9 and the EC50 was found to be 31.6 µg/mL.

`CSC(=N)NN=C(C)c1ccc(Cl)c(Cl)c1Cl` [Compound 31]: in the data set “in vitro”, the CC50 at 48 h came to 354 µg/mL (≈ 1140 µM). Further, the pest or weed control at 400 ppm in data set [1] came out at 89%. Besides, in data set [2], the virus proliferation-inhibiting index is on record as 16.6 and the IC50 was 21.3 µg/mL (≈ 68.6 µM).

As for `CSC(=N)NN=Cc1ccccc1` [Compound 1], the pest or weed control at 400 ppm in data set [1] was determined as 90%.

As for `N=C(NN=Cc1ccccc1)SCc1ccccc1` [Compound 2, Benzaldehyde-S-benzylisothiosemicarbazone Hydrochloride], the pest or weed control at 400 ppm in data set [1] was 85%.

As to `CSC(=N)NN=Cc1ccc(Cl)cc1Cl` [Compound 8], in the data set “in vitro”, the CC50 at 48 h stood at 706 µg/mL (≈ 2690 µM). Moreover, the pest or weed control at 400 ppm in data set [1] was determined as 97%. In data set [2], the virus proliferation-inhibiting index is 35.7 and the IC50 was determined as 19.8 µg/mL (≈ 75.5 µM). In data set [3], the virucidal index is reported as 15.2 and the EC50 amounted to 46.4 µg/mL (≈ 177 µM).

Consider `CSC(=N)NN=Cc1cc(Cl)cc(Cl)c1O` [Compound 14], for which the CC50 at 48 h in the data set “in vitro” was more than 1000 µg/mL. Further, the pest or weed control at 400 ppm in data set [1] was 98%. In data set [2], the virus proliferation-inhibiting index is recorded as more than 66.7 and the IC50 worked out at 15 µg/mL (≈ 53.9 µM).

For the molecule `CN=C(NN=Cc1ccc(Cl)cc1)SC` [Compound 7], in data set [1], the pest or weed control at 400 ppm is 75%.

For `CCCCCCCCCCOc1ccc(C(C)=NNC(=N)SC)cc1` [Compound 41], the CC50 at 48 h in “in vitro” was found to be 1000 µg/mL (≈ 2750 µM). Also, the pest or weed control at 400 ppm in data set [1] amounted to 94%. In addition, in data set [2], the virus proliferation-inhibiting index is given as less than 5.0 and the IC50 was more than 200 µg/mL. For the same molecule, in data set [3], the virucidal index was 6.9 and the EC50 was determined as 145 µg/mL (≈ 399 µM).

With `CCCCCOc1ccc(C(C)=NNC(=N)SCCCC)cc1` [Compound 39], in data set [1], the pest or weed control at 400 ppm came to 100%.

Regarding `CCC(=NNC(=N)SC)c1ccc(Cl)cc1` [Compound 26], the pest or weed control at 400 ppm in data set [1] worked out at 100%.

Regarding `CSC(=N)NN=Cc1ccc(C)cc1` [Compound 17], in data set [1], the pest or weed control at 400 ppm was 100%.

Regarding `CSC(=N)NN=C(C)c1ccc(C)cc1` [Compound 33], in “in vitro”, the CC50 at 48 h was 1000 µg/mL (≈ 4520 µM). In data set [1], the pest or weed control at 400 ppm stood at 97%. For the same molecule, in data set [2], the virus proliferation-inhibiting index is on record as 20.0 and the IC50 is 50 µg/mL (≈ 226 µM).

`CSC(=N)NN=C(C)C=Cc1ccc(Cl)cc1` [Compound 42] came in with a CC50 at 48 h in “in vitro” of 710 µg/mL (≈ 2650 µM). Also, in data set [1], the pest or weed control at 400 ppm turned out to be 88%. Also, in data set [2], the virus proliferation-inhibiting index stood at 7.1 and the IC50 was found to be 100 µg/mL (≈ 373 µM). Besides, in data set [3], the virucidal index is recorded as 4.2 and the EC50 was 170 µg/mL (≈ 635 µM).

In the data set “in vitro”, `CSC(=N)NN=Cc1ccc(Cl)c(Cl)c1` [Compound 11, 3',4'-Dichlorobenzaldehyde-S-methylisothiosemicarbazone Hydrochloride] gave a CC50 at 48 h of 707 µg/mL. The pest or weed control at 400 ppm in data set [1] stood at 98%. Besides, in data set [2], the virus proliferation-inhibiting index is on record as 33.2 and the IC50 turned out to be 21.3 µg/mL. In addition, in data set [3], the virucidal index is 15.2 and the EC50 turned out to be 46.4 µg/mL.

Take `CSC(=N)NN=Cc1cccc(Br)c1` [Compound 16]: in data set [1], the pest or weed control at 400 ppm is 100%.

In the case of `CCCCCCCCOc1ccc(C=CC(C)=NNC(=N)SC)cc1OC` [Compound 47], the pest or weed control at 400 ppm in data set [1] amounted to 96%.

Consider `CCCCOc1ccc(C=CC(C)=NNC(=N)SC)cc1` [Compound 44], for which, in data set [1], the pest or weed control at 400 ppm turned out to be 100%.

`CCOc1ccc(C(C)=NNC(=N)SC)cc1` [Compound 37] had a CC50 at 48 h in “in vitro” of 88.8 µg/mL (≈ 353 µM). Also, the pest or weed control at 400 ppm in data set [1] was 89%. For the same molecule, in data set [2], the virus proliferation-inhibiting index was found to be 7.1 and the IC50 was 12.5 µg/mL (≈ 49.7 µM).

For the molecule `CSC(=N)NN=C(C)c1cccc(Cl)c1` [Compound 24], the CC50 at 48 h in the data set “in vitro” worked out at 708 µg/mL (≈ 2930 µM). Also, the pest or weed control at 400 ppm in data set [1] turned out to be 89%. Moreover, in data set [2], the virus proliferation-inhibiting index is reported as 28.3 and the IC50 stood at 25 µg/mL (≈ 103 µM). Also, in data set [3], the virucidal index amounted to 3.3 and the EC50 stood at 215 µg/mL (≈ 889 µM).

On to `CSC(=N)NN=Cc1ccccc1Cl` [Compound 3], for which the pest or weed control at 400 ppm in data set [1] amounted to 96%.

As to `CCCC(=NNC(=N)SC)c1ccc(Cl)cc1` [Compound 27], the pest or weed control at 400 ppm in data set [1] was found to be 100%.

As for `CSC(=N)NN=C(C)c1ccc(O)cc1` [Compound 34], the pest or weed control at 400 ppm in data set [1] came to 93%.

As to `CCCCCCCCOc1ccc(C(C)=NNC(=N)SC)cc1` [Compound 40], the pest or weed control at 400 ppm in data set [1] stood at 85%.

With `CSC(=N)NN=Cc1cc(Cl)cc(Cl)c1` [Compound 13], in “in vitro”, the CC50 at 48 h amounted to 700 µg/mL (≈ 2670 µM). For the same molecule, the pest or weed control at 400 ppm in data set [1] stood at 100%. In data set [2], the virus proliferation-inhibiting index is 14.0 and the IC50 is 50 µg/mL (≈ 191 µM).

As to `COc1ccc(C(C)=NNC(=N)SC)cc1` [Compound 35], in “in vitro”, the CC50 at 48 h stood at 99.4 µg/mL (≈ 419 µM). The pest or weed control at 400 ppm in data set [1] came out at 100%. Besides, in data set [2], the virus proliferation-inhibiting index stood at 7.0 and the IC50 came to 14.2 µg/mL (≈ 59.8 µM).

Consider `CSC(=N)NN=Cc1ccc(Cl)cc1` [Compound 6, 4'-Chlorobenzaldehyde-S-methylisothiosemicarbazone Hydrochloride], for which, in data set [1], the pest or weed control at 400 ppm turned out to be 100%.

As for `CCCC(=NNC(=N)SC)c1ccccc1` [Compound 23], the pest or weed control at 400 ppm in data set [1] amounted to 93%.

Turning to `CCCCSC(=N)NN=Cc1ccc(F)cc1` [Compound 15], in data set [1], the pest or weed control at 400 ppm is 93%.

Take `CSC(=N)NN=C(C)c1ccccc1` [Compound 21]: in “in vitro”, the CC50 at 48 h came to 158 µg/mL (≈ 760 µM). For the same molecule, the pest or weed control at 400 ppm in data set [1] came out at 100%. For the same molecule, in data set [2], the virus proliferation-inhibiting index is 12.6 and the IC50 is 12.5 µg/mL (≈ 60.3 µM).
